In US20240366564A1, “Use of Chlorophyll Derivatives for the Treatment of SARS-CoV-2 Infection” (priority 2021, published 2024):
pIC50: −log10 of the molar value. Entries after “also recorded” stand apart in the source; their conditions may differ. Where two headings read alike, the source gives them in different places.

Assays:
[1] = target: T1, binding of SARS-CoV-2 Spike protein (S1 subunit) to ACE2 (UniProt P0DTC2+Q9BYF1); experiment: biochemical
T1 construct: a fusion protein of the SARS-CoV-2 spike protein S1 subunit and the horseradish peroxidase (HRP) enzyme
T1 sequence (Q9BYF1 18-740, one chain of several): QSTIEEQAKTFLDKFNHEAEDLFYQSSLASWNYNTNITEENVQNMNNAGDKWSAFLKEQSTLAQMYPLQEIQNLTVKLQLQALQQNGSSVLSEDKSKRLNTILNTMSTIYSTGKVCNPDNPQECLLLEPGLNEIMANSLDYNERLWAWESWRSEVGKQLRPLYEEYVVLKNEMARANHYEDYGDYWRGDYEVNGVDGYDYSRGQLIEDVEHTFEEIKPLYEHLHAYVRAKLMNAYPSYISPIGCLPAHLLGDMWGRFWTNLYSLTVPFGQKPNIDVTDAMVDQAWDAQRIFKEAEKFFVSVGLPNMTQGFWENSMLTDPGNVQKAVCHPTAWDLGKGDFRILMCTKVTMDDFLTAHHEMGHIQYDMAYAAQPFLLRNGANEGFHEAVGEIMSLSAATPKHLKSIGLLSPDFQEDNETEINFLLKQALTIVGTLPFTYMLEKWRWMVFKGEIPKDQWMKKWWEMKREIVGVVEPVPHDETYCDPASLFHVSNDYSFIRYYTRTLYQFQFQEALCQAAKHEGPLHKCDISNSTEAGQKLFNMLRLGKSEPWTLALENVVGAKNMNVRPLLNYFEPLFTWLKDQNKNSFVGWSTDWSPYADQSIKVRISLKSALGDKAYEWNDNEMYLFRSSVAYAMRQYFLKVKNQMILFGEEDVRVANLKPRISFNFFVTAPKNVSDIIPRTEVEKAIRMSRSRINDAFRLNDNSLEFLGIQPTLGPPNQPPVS

[2] = tested on: SARS-CoV-2 USA-WA1/2020 virus; type: cell-based
[3] = tested on: SARS-CoV-2-infected permissive cell lines (Vero E6, Huh-7.5, A549 ACE2+, HT1080 ACE2+)

Row | Compound | Active (Y or N) [1] | further results
1 | C1=Cc2nc1cc1ccc([nH]1)c(-c1ccccc1)c1nc(cc3ccc([nH]3)c2-c2ccccc2)C=C1 [5,15-diphenyl-21H,23H-porphine] | N | 
2 | C=Cc1c(C)c2cc3nc(c(CC(=O)O)c4[nH]c(cc5nc(cc1[nH]2)C(C)=C5CC)c(C)c4C(=O)O)[C@@H](CCC(=O)O)[C@@H]3C [Chlorin E6] | Y (weak) | pIC50 ([1]; read-out: IC50): 5.30
3 | C=Cc1c(C)c2cc3nc(c4c5[n-]c(cc6nc(cc1[n-]2)C(C)=C6CC)c(C)c5C(=O)[C@@H]4C(=O)OC)[C@@H](CCC(=O)OC/C=C(\C)CCC[C@H](C)CCC[C@H](C)CCCC(C)C)[C@@H]3C.[Mg+2] [Chlorophyll A] | N | 
4 | C=Cc1c(C)c2cc3nc(c4c5[n-]c(cc6nc(cc1[n-]2)C(C=O)=C6CC)c(C)c5C(=O)[C@@H]4C(=O)OC)[C@@H](CCC(=O)OC/C=C(\C)CCC[C@H](C)CCC[C@H](C)CCCC(C)C)[C@@H]3C.[Mg+2] [Chlorophyll B] | N | 
5 | C=Cc1c(C)c2cc3nc(c4c5[nH]c(cc6nc(cc1[nH]2)C(C)=C6CC)c(C)c5C(=O)[C@@H]4C(=O)OC)[C@@H](CCC(=O)O)[C@@H]3C [Pheophorbide A] | Y | pIC50 [1]: 6.30; inhibition of the binding of SARS-CoV-2 Spike protein to ACE2 (in words) [1]: dose dependent decrease in binding; also recorded: dose-dependent inhibition; antiviral activity under light exposure versus dark [2]: generally improved; antiviral activity without photoactivation [2]: exhibit antiviral activity in the dark; antiviral effect with pre-treatment versus treatment after infection [2]: more pronounced; inhibition of SARS-CoV-2 infection in culture [2]: significantly inhibits; toxicity to the infected cells relative to antiviral doses [3]: antiviral activity was detected at doses lower than the dosing where pheophorbide A was toxic
6 | C1=Cc2cc3ccc(cc4nc(cc5ccc(cc1n2)[nH]5)C=C4)[nH]3 [Porphine] | N | 
7 | C=CC1=C(C)c2cc3[nH]c(cc4nc(cc5[nH]c(cc1n2)c(C)c5CCC(=O)O)C(CCC(=O)O)=C4C)c(C)c3C=C [Protoporphyrin IX] |  | pIC50 [1]: 5.92
8 | C[n+]1ccc(-c2c3nc(c(-c4cc[n+](C)cc4)c4ccc([nH]4)c(-c4cc[n+](C)cc4)c4ccc([nH]4)c(-c4cc[n+](C)cc4)c4nc2C=C4)C=C3)cc1 [TmPyP4] | N | 
9 | Coproporphyrin III | N | 
10 | MnTBAP | N | 
11 | N-Methyl Mesoporphyrin | N | 
12 | N-Methyl Protoporphyrin | N | 
13 | Verteporfin | Y | pIC50 ([1]; read-out: IC50): 6.65
14 | Vitamin B12 | N | inhibition of the binding of SARS-CoV-2 Spike protein to ACE2 (in words) [1]: non-active
